# In ChEMBL document CHEMBL4138121, “Selective photocytotoxicity of anthrols on cancer stem-like cells: The effect of quinone methides or reactive oxygen species” (Eur J Med Chem, 2017):
# Activity calls are given as the source filed them. The rule behind the calls is not given here.
# Columns and labels:
# [1] = system: HCT-116; test: Photocytotoxicity against human HCT116 cells assessed as growth inhibition irradiated at 350 nm at 4, 24, 48 hrs post compound addition for 5 mins measured after 72 hrs by MTT assay; assay type: functional, cell-based; settings: HCT-116, light or radiation study
# [2] = Dark toxicity against human HCT116 cells after 72 hrs by MTT assay; assay type: cell-based, HCT-116
# [3] = system: HCT-116; test: Photocytotoxicity against human HCT116 cells assessed as growth inhibition irradiated at 420 nm at 4, 24, 48 hrs post compound addition for 5 mins measured after 72 hrs by MTT assay; assay type: functional, cell-based; settings: HCT-116, light or radiation study
# [4] = Dark toxicity against human H460 cells after 72 hrs by MTT assay; assay type: cell-based, NCI-H460
# [5] = system: NCI-H460; test: Photocytotoxicity against human H460 cells assessed as growth inhibition irradiated at 350 nm at 4, 24, 48 hrs post compound addition for 5 mins measured after 72 hrs by MTT assay; assay type: functional, cell-based; settings: NCI-H460, light or radiation study
# [6] = system: NCI-H460; test: Photocytotoxicity against human H460 cells assessed as growth inhibition irradiated at 420 nm at 4, 24, 48 hrs post compound addition for 5 mins measured after 72 hrs by MTT assay; assay type: functional, cell-based; settings: NCI-H460, light or radiation study
# [7] = Dark toxicity against human MCF7 cells after 72 hrs by MTT assay; assay type: cell-based
# [8] = system: MCF7; test: Photocytotoxicity against human MCF7 cells assessed as growth inhibition irradiated at 350 nm at 4, 24, 48 hrs post compound addition for 5 mins measured after 72 hrs by MTT assay; assay type: functional, cell-based; settings: MCF7, light or radiation study
# [9] = system: MCF7; test: Photocytotoxicity against human MCF7 cells assessed as growth inhibition irradiated at 420 nm at 4, 24, 48 hrs post compound addition for 5 mins measured after 72 hrs by MTT assay; assay type: functional, cell-based; settings: MCF7, light or radiation study
# [10] = Dark toxicity against human SUM159 cells after 72 hrs by MTT assay; assay type: cell-based, SUM-159-PT
# [11] = system: HMLE; test: Anticlonogenic activity against HMLE-shEcad cells at 0.5 to 1 uM irradiated at 350 nm at 4 hrs post compound addition for 5 mins for 5 mins measured after 24 hrs by crystal violet staining-based assay; assay type: functional, cell-based; settings: Homo sapiens
# [12] = system: SUM-159-PT; test: Photocytotoxicity against human SUM159 cells assessed as growth inhibition irradiated at 420 nm at 4, 24, 48 hrs post compound addition for 5 mins measured after 72 hrs by MTT assay; assay type: functional, cell-based; settings: light or radiation study
# [13] = Dark toxicity against HMLE-shGFP cells after 72 hrs by MTT assay; assay type: cell-based; settings: human
# [14] = Photocytotoxicity against HMLE-shGFP cells assessed as growth inhibition irradiated at 350 nm at 4, 24, 48 hrs post compound addition for 5 mins measured after 72 hrs by MTT assay; assay type: cell-based; settings: Homo sapiens, light or radiation study
# [15] = Photocytotoxicity against HMLE-shGFP cells assessed as growth inhibition irradiated at 420 nm at 4, 24, 48 hrs post compound addition for 5 mins measured after 72 hrs by MTT assay; assay type: cell-based; settings: Homo sapiens, light or radiation study
# [16] = Dark toxicity against HMLE-shEcad cells after 72 hrs by MTT assay; assay type: cell-based; settings: human
# [17] = Photocytotoxicity against HMLE-shEcad cells assessed as growth inhibition irradiated at 350 nm at 4, 24, 48 hrs post compound addition for 5 mins measured after 72 hrs by MTT assay; assay type: functional, cell-based; settings: Homo sapiens, light or radiation study
# [18] = Photocytotoxicity against HMLE-shEcad cells assessed as growth inhibition irradiated at 420 nm at 4, 24, 48 hrs post compound addition for 5 mins measured after 72 hrs by MTT assay; assay type: functional, cell-based; settings: Homo sapiens, light or radiation study
# [19] = Cell cycle arrest in HMLE-shEcad cells assessed as delay in G1/S phase at 1 to 10 uM after 24 to 48 hrs in absence of irradiation by propidium iodide staining-based flow cytometric method; settings: human
# [20] = system: HMLE; test: Cell cycle arrest in HMLE-shEcad cells assessed as accumulation at S phase at 1 to 10 uM irradiated at 420 nm at 4 hrs post compound addition for 5 mins measured after 24 to 48 hrs by propidium iodide staining-based flow cytometric method; assay type: functional; settings: Homo sapiens
# [21] = system: HMLE; test: Cell cycle arrest in HMLE-shEcad cells assessed as accumulation at G2/M phase at 1 to 10 uM irradiated at 420 nm at 4 hrs post compound addition for 5 mins measured after 24 to 48 hrs by propidium iodide staining-based flow cytometric method; assay type: functional; settings: Homo sapiens
# [22] = Cell cycle arrest in HMLE-shGFP cells assessed as accumulation at S phase at 1 to 10 uM irradiated at 420 nm at 4 hrs post compound addition for 5 mins measured after 24 to 48 hrs by propidium iodide staining-based flow cytometric method; settings: human
# [23] = Cell cycle arrest in HMLE-shGFP cells assessed as accumulation at G2/M phase at 1 to 10 uM irradiated at 420 nm at 4 hrs post compound addition for 5 mins measured after 24 to 48 hrs by propidium iodide staining-based flow cytometric method; settings: human
# [24] = Cytotoxicity against HMLE-shGFP cells at 10 uM irradiated at 420 nm at 4 hrs post compound addition for 5 mins measured after 48 hrs by propidium iodide staining-based flow cytometric method; assay type: cell-based; settings: human
# [25] = system: HMLE; test: Cytotoxicity against HMLE-shEcad cells at 10 uM irradiated at 420 nm at 4 hrs post compound addition for 5 mins measured after 48 hrs by propidium iodide staining-based flow cytometric method; assay type: functional, cell-based; settings: Homo sapiens
# [26] = system: MCF7; test: Cell cycle arrest in human MCF7 cells in presence of irradiation; assay type: functional, cell-based
# [27] = system: SUM-159-PT; test: Cell cycle arrest in human SUM159 cells in presence of irradiation; assay type: functional, cell-based
# [28] = system: SUM-159-PT; test: Induction of reactive oxygen species generation in human SUM159 cells at 1 to 10 uM irradiated at 420 nm for 5 mins measured after 2 hrs by H2DCF-DA dye-based FACS analysis; assay type: functional, cell-based
# [29] = system: MCF7; test: Induction of reactive oxygen species generation in human MCF7 cells at 1 to 10 uM irradiated at 420 nm for 5 mins measured after 2 hrs by H2DCF-DA dye-based FACS analysis; assay type: functional, cell-based
# [30] = Induction of reactive oxygen species generation in HMLE-shGFP cells at 1 to 10 uM irradiated at 420 nm for 5 mins measured after 2 hrs by H2DCF-DA dye-based FACS analysis relative to non-irradiated cells; assay type: cell-based; settings: human
# [31] = Decrease in reactive oxygen species generation in HMLE-shEcad cells at 1 uM in absence of irradiation measured after 2 hrs by H2DCF-DA dye-based FACS analysis; assay type: ADME, cell-based; settings: human
# [32] = Drug uptake in cytoplasm of HMLE-shGFP cells at 5 uM irradiated at 420 nm for 5 mins measured after 2 to 3 hrs by confocal microscopic method; assay type: ADME, subcellular; settings: human
# [33] = Drug uptake in nucleus of HMLE-shGFP cells at 5 uM irradiated at 420 nm for 5 mins measured after 2 to 3 hrs by confocal microscopic method; assay type: ADME, subcellular; settings: human
# [34] = Drug uptake in cytoplasm of HMLE-shEcad cells at 10 uM in absence of irradiation measured after 2 to 3 hrs by confocal microscopic method; assay type: ADME, subcellular; settings: human
# [35] = Drug uptake in nucleus of HMLE-shEcad cells at 10 uM in absence of irradiation measured after 2 to 3 hrs by confocal microscopic method; assay type: ADME, subcellular; settings: human
# [36] = Drug uptake in plasma membranes of HMLE-shGFP cells at 5 uM irradiated at 420 nm for 5 mins measured after 2 to 3 hrs by confocal microscopic method; assay type: ADME, cell membranes, Plasma membrane; settings: human
# [37] = Drug uptake in intracellular membranes of HMLE-shGFP cells at 5 uM irradiated at 420 nm for 5 mins measured after 2 to 3 hrs by confocal microscopic method; assay type: ADME, cell membranes, Intracellular membrane; settings: human
# [38] = Induction of cell damage in HMLE-shGFP cells assessed as cell swelling at 5 uM irradiated at 420 nm for 5 mins measured after 2 to 3 hrs by confocal microscopic method; assay type: cell-based; settings: human
# [39] = Induction of cell damage in HMLE-shGFP cells assessed as degradation of internal structure at 5 uM irradiated at 420 nm for 5 mins measured after 2 to 3 hrs by confocal microscopic method; assay type: cell-based; settings: human
# [40] = Induction of cell damage in HMLE-shGFP cells assessed as membrane blebbing at 5 uM irradiated at 420 nm for 5 mins measured after 2 to 3 hrs by confocal microscopic method; assay type: cell-based; settings: human
smiles,measurement,setting,value
Oc1ccc2cc3ccccc3cc2c1,IC50,[1],9 µM
same,IC50 at 72 h,[2],27 µM
same,IC50,[3],2 µM
same,IC50 at 72 h,[4],23 µM
same,IC50,[5],12 µM
same,IC50,[6],2 µM
same,IC50 at 72 h,[7],28 µM
same,IC50,[8],2 µM
same,IC50,[9],1 µM
same,IC50 at 72 h,[10],18 µM
same,Activity,[11],Active
same,IC50,[12],2 µM
same,IC50 at 72 h,[13],27 µM
same,IC50,[14],2 µM
same,IC50,[15],2 µM
same,IC50 at 72 h,[16],25 µM
same,IC50,[17],2 µM
same,IC50,[18],1 µM
same,Activity,[19],Toxic
same,Activity,[20],Active
same,Activity,[21],Active
same,Activity,[22],Toxic
same,Activity,[23],Toxic
same,Activity,[24],Toxic
same,Activity,[25],Active
same,Activity,[26],inactive
same,Activity,[27],inactive
same,Activity,[28],Active
same,Activity,[29],Active
same,fold change (FC),[30],2
same,Activity,[31],Toxic
same,Drug uptake,[32],Active
same,Drug uptake,[33],Not Active
same,Drug uptake,[34],Active
same,Drug uptake,[35],Not Active
same,Drug uptake,[36],Active
same,Drug uptake,[37],Active
same,Activity,[38],Toxic
same,Activity,[39],Toxic
same,Activity,[40],Toxic
